In US12527736B2, “Punica granatum extract and its cosmetic uses” (L'OREAL, priority 2019, dated 2026):

Test system: Normal human fibroblasts
Test: Peroxidation of lipids test: protection against UVA-induced lipid peroxidation (8-iso-Prostanes release)
Type: cell-based
Conditions: pure ellagic acid at 3 μM for 24 h, then UVA exposure, assayed 2 h30 after exposure
Method: An evaluation of the protection potential against UVA-induced lipid peroxidation of Punica granatum extract according to the invention obtained according to Example 1 was made and compared to the protection against UVA-induced lipid peroxidation of pure ellagic acid. Normal human fibroblasts are treated either with the Punica granatum extract according to the invention at 0.001% or with pure ellagic acid at 3 μM for 24 h and then exposed to a UVA dose inducing no more than 20% cell death. A control was performed consisting in normal human fibroblasts exposed to a UVA dose inducing no more than 20% cell death. 8-iso-Prostanes release is assayed 2 h30 after the exposure.

With O=c1oc2c(O)c(O)cc3c(=O)oc4c(O)c(O)cc1c4c23 [Ellagic acid, ellagic acid] the “protection against lipid peroxidation” value (UV-exposed control = 0%) was 35% and the “release of 8-iso-Prostanes” value (UV-exposed control = 100%) was 65%.
